The target of this experiment is human PD-L1 (Homo sapiens (Human), UniProt Q9NZQ7). The experiment can be described thus: T cell activation luciferase reporter cell culture system (T Cell Activation Assay). The class given is cell-based. As to conditions: luciferase reporter assay; PD-L1 aAPC/CHO-K1 cells with PD-1 effector Jurkat T cells. (In general: In a reporter assay the amount or activity of a reporter protein is the signal.)

Molecules are shown by their SMILES.

human PD-L1, sequence (Q9NZQ7 19-290): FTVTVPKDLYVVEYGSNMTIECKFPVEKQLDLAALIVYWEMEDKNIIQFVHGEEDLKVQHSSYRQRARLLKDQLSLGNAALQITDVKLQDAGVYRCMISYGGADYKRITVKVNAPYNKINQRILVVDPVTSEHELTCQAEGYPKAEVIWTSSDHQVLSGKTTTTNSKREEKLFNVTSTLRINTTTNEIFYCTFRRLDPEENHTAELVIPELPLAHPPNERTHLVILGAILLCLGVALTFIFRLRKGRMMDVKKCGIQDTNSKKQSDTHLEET

In turn, `COc1cc(-c2nccc(-c3cccc(-c4ccc(CNC[C@@H]5CCC(=O)N5)c(OC)n4)c3Cl)c2Cl)ccc1CNCCO` [Cmpd 70, (S)-5-((((6-(2-chloro-3-(3-chloro-2-(4-(((2-hydroxyethyl)amino)methyl)-3-methoxyphenyl)pyridin-4-yl)phenyl)-2-methoxypyridin-3-yl)methyl)amino)methyl)pyrrolidin-2-one] had an EC50 of 49.4 nM. The figure for `COc1cc(-c2nccc(-c3cccc(-c4cc(Cl)c(CNC[C@@H]5CCC(=O)N5)c(OC)n4)c3Cl)c2Cl)ccc1CN(C)C[C@H](C)O` [Cmpd 71, (S)-5-((((4-chloro-6-(2-chloro-3-(3-chloro-2-(4-((((S)-2-hydroxypropyl)(methyl)amino)methyl)-3-methoxyphenyl)pyridin-4-yl)phenyl)-2-methoxypyridin-3-yl)methyl)amino)methyl)pyrrolidin-2-one] is 30.6 nM. The figure for `COc1nc(-c2cccc(-c3ccnc(-c4cc(Cl)c5c(c4)CCN(CCCF)C5)c3Cl)c2Cl)ccc1CNC[C@@H]1CCC(=O)N1` [Cmpd 72, (S)-5-((((6-(2-chloro-3-(3-chloro-2-(8-chloro-2-(3-fluoropropyl)-1,2,3,4-tetrahydroisoquinolin-6-yl)pyridin-4-yl)phenyl)-2-methoxypyridin-3-yl)methyl)amino)methyl)pyrrolidin-2-one] is 392 nM; for `COc1cc(-c2nccc(-c3cccc(-c4ccc(CNC[C@@H]5CCC(=O)N5)c(OC)n4)c3Cl)c2Cl)cc2c1CN(CCC1(O)CC1)CC2` [Cmpd 74, (S)-5-((((6-(2-chloro-3-(3-chloro-2-(2-(2-(1-hydroxycyclopropyl)ethyl)-8-methoxy-1,2,3,4-tetrahydroisoquinolin-6-yl)pyridin-4-yl)phenyl)-2-methoxypyridin-3-yl)methyl)amino)methyl)pyrrolidin-2-one] it is 70 nM; for `COc1cc(-c2nccc(-c3cccc(-c4ccc(CNC[C@@H]5CCC(=O)N5)c(OC)n4)c3Cl)c2Cl)ccc1CN(C)C[C@H](C)O` [Cmpd 75, (S)-5-((((6-(2-chloro-3-(3-chloro-2-(4-((((S)-2-hydroxypropyl)(methyl)amino)methyl)-3-methoxyphenyl)pyridin-4-yl)phenyl)-2-methoxypyridin-3-yl)methyl)amino)methyl)pyrrolidin-2-one] it is 16 nM.

The molecule `COc1cc(-c2nccc(-c3cccc(-c4ccc(CNC[C@@H]5CCC(=O)N5)c(OC)n4)c3Cl)c2Cl)ccc1CN1CC[C@H](C(=O)OC(C)C)C1` [Cmpd 76, isopropyl (S)-1-(4-(3-chloro-4-(2-chloro-3-(6-methoxy-5-(((((S)-5-oxopyrrolidin-2-yl)methyl)amino)methyl)pyridin-2-yl)phenyl)pyridin-2-yl)-2-methoxybenzyl)pyrrolidine-3-carboxylate] had an EC50 of 89.7 nM. Molecule `COc1cc(-c2nccc(-c3cccc(-c4ccc(CNC[C@@H]5CCC(=O)N5)c(OC)n4)c3Cl)c2Cl)ccc1CN1CC[C@H](C(=O)O)C1` [Cmpd 77, (S)-1-(4-(3-chloro-4-(2-chloro-3-(6-methoxy-5-(((((S)-5-oxopyrrolidin-2-yl)methyl)amino)methyl)pyridin-2-yl)phenyl)pyridin-2-yl)-2-methoxybenzyl)pyrrolidine-3-carboxylic acid] registered an EC50 of 105 nM. As for `COc1cc(-c2nccc(-c3cccc(-c4ccc(CNC[C@@H]5CCC(=O)N5)c(OC)n4)c3Cl)c2Cl)ccc1CN1CCC[C@H]1C(=O)O` [Cmpd 78, (4-(3-chloro-4-(2-chloro-3-(6-methoxy-5-(((((S)-5-oxopyrrolidin-2-yl)methyl)amino)methyl)pyridin-2-yl)phenyl)pyridin-2-yl)-2-methoxybenzyl)-L-proline], a half-maximal effect (EC50) was put at 205 nM. Take `COc1cc(-c2nccc(-c3cccc(-c4ccc(CNC[C@@H]5CCC(=O)N5)c(OC)n4)c3Cl)c2Cl)cc(F)c1CN[C@H]1C[C@](C)(O)C1` [Cmpd 79]: the EC50 came to 50.6 nM. The figure for `COc1cc(-c2nccc(-c3cccc(-c4ccc(CNC[C@@H]5CCC(=O)N5)c(OC)n4)c3Cl)c2Cl)cc(F)c1CNC[C@H](C)O` [Cmpd 80, (S)-5-((((6-(2-chloro-3-(3-chloro-2-(3-fluoro-4-((((S)-2-hydroxypropyl)amino)methyl)-5-methoxyphenyl)pyridin-4-yl)phenyl)-2-methoxypyridin-3-yl)methyl)amino)methyl)pyrrolidin-2-one] is 46.2 nM. Consider `COc1cc(-c2nccc(-c3cccc(-c4ccc(CNC[C@@H]5CCC(=O)N5)c(OC)n4)c3Cl)c2Cl)cc(F)c1CNC[C@@H](C)O` [Cmpd 81, (S)-5-((((6-(2-chloro-3-(3-chloro-2-(3-fluoro-4-((((R)-2-hydroxypropyl)amino)methyl)-5-methoxyphenyl)pyridin-4-yl)phenyl)-2-methoxypyridin-3-yl)methyl)amino)methyl)pyrrolidin-2-one], for which the midpoint of the response, the EC50, lay at 31.4 nM. Turning to `COc1cc(-c2nccc(-c3cccc(-c4ccc(CNC[C@@H]5CCC(=O)N5)c(OC)n4)c3Cl)c2Cl)cc(F)c1CNC(C)C` [Cmpd 82, (S)-5-((((6-(2-chloro-3-(3-chloro-2-(3-fluoro-4-((isopropylamino)methyl)-5-methoxyphenyl)pyridin-4-yl)phenyl)-2-methoxypyridin-3-yl)methyl)amino)methyl)pyrrolidin-2-one], the EC50 stood at 60.5 nM. Take `COc1cc(-c2nccc(-c3cccc(-c4ccc(CNC[C@@H]5CCC(=O)N5)c(OC)n4)c3Cl)c2Cl)cc(F)c1CNCC(C)C` [Cmpd 83, (S)-5-((((6-(2-chloro-3-(3-chloro-2-(3-fluoro-4-((isobutylamino)methyl)-5-methoxyphenyl)pyridin-4-yl)phenyl)-2-methoxypyridin-3-yl)methyl)amino)methyl)pyrrolidin-2-one]: the EC50 came out at 66.2 nM. As for `COc1cc(-c2nccc(-c3cccc(-c4ccc(CNCCO)c(OC)n4)c3Cl)c2Cl)cc2c1CN(CCCF)CC2` [Cmpd 84, 2-(((6-(2-chloro-3-(3-chloro-2-(2-(3-fluoropropyl)-8-methoxy-1,2,3,4-tetrahydroisoquinolin-6-yl)pyridin-4-yl)phenyl)-2-methoxypyridin-3-yl)methyl)amino)ethan-1-ol], the figure is 71 nM. `COc1cc(-c2nccc(-c3cccc(-c4ccc(CNCCO)c(OC)n4)c3Cl)c2Cl)cc2c1CN(CCC1CCNCC1)CC2` [Cmpd 85, 2-(((6-(2-chloro-3-(3-chloro-2-(8-methoxy-2-(2-(piperidin-4-yl)ethyl)-1,2,3,4-tetrahydroisoquinolin-6-yl)pyridin-4-yl)phenyl)-2-methoxypyridin-3-yl)methyl)amino)ethan-1-ol] came in with an EC50 of 142 nM. As for `COc1cc(-c2nccc(-c3cccc(-c4cc(Cl)c(CNC[C@@H]5CCC(=O)N5)c(OC)n4)c3Cl)c2Cl)cc2c1CN(C[C@H](C)O)CC2` [Cmpd 86, (S)-5-((((4-chloro-6-(2-chloro-3-(3-chloro-2-(2-((S)-2-hydroxypropyl)-8-methoxy-1,2,3,4-tetrahydroisoquinolin-6-yl)pyridin-4-yl)phenyl)-2-methoxypyridin-3-yl)methyl)amino)methyl)pyrrolidin-2-one], the figure is 27.5 nM; as for `COc1cc(-c2nccc(-c3cccc(-c4ccc(CNC[C@@H]5CCC(=O)N5)c(OC)n4)c3Cl)c2Cl)ccc1CN1CC2(CNC(=O)C2)C1` [Cmpd 88, (S)-2-(4-(3-chloro-4-(2-chloro-3-(6-methoxy-5-((((5-oxopyrrolidin-2-yl)methyl)amino)methyl)pyridin-2-yl)phenyl)pyridin-2-yl)-2-methoxybenzyl)-2,6-diazaspiro[3.4]octan-7-one], 24.9 nM.

In general, EC50 refers to the concentration at which the effect is half-maximal. The low end stands for an effect from little substance, the high end for a need for much substance.

The record behind these values is US20240246964A1 (Arbutus Biopharma Corporation, priority 2021, published 2024).
